From patent publication US20100022520A1, “MALONYL-COA ACETYLTRANSFERASE INHIBITORS AGAINST ANTIBIOTIC RESISTANT BACTERTIA” (University of Pittsburgh -- Of the Commonwealth System of …, priority 2008, published 2010)

Experiments:
caspase = assay: inhibition of caspase
p53 = assay: inhibition of p53
[1] = tested on: 32D cl 3 mouse hematopoietic progenitor cells; assay: radioprotection, survival curves of irradiated 32D cl 3 cells; assay type: cell-based; details: for radioprotective effect on cells: 10 μM, compound added before or after radiation; for Do (Gy): compound at 10 μM, ionizing radiation survival curve
Experimental: To measure the level of radioprotection for compounds in Table 3, a DMSO solution is made for each compound and added to 32D cl 3 cells, a mouse hematopoietic progenitor cell line at a final concentration of 10 μM. The terms “radioprotection” and “radioprotective” refer to the protective effect on normal cells exerted by the captioned compounds when such cells are exposed to ionizing radiation.
FIGS. 2-4 show the survival curves for 32D cl 3 cells in the presence of different compounds of the invention. A strong radioprotective effect is seen in cultures that include the captioned compounds. FIGS. 2 and 3 show cell survival curves when the captioned compounds were added to cell cultures before exposure to radiation. The survival curves in FIG. 4, however, show the radioprotective effect of the inventive compounds when delivered to cell cultures after exposure to ionizing radiation. […] Moreover, the extent of radioprotection in a culture that is pretreated with an inventive compound is similar to that observed in a culture in which such compound is added after exposure to radiation.
The extent of radioprotection afforded by the captioned compounds is determined by measuring the fraction of viable cells in a culture containing the captioned radioprotective agent. The fraction of viable cells is determined by back-extrapolating the linear portion of the shoulder width in a survival curve to the Y-axis.

E. coli FabD = target: T1, E. coli FabD (Escherichia coli, UniProt P0AAI9); assay: in vitro FabD (MCAT) enzyme inhibition assay, HPLC of CoA peak; assay type: biochemical; details: protocol of Molnos et al.
T1 construct: made in house; host or cells: E. coli
T1 sequence (P0AAI9 whole entry): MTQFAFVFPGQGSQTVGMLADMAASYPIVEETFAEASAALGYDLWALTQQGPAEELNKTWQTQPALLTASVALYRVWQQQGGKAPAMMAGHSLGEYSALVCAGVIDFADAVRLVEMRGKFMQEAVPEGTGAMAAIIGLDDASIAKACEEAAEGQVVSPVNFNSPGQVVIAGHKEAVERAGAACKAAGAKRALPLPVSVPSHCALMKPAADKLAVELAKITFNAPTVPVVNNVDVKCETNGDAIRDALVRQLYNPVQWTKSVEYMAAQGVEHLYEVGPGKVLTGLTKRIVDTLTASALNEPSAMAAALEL
Experimental: Compounds synthesized using MCR, as described above, were tested for their ability to inhibit FabD using an in vitro inhibition assay. Briefly, FabD and holo-ACP was cloned, and expressed in E. coli according to the protocol of Molnos et al., Anal. Biochem. 2003, 319, 171. The proteins were purified using the ACTA protein purification system. The inhibition study was carried out according to the protocol of Miossec et al., American Society for Microbiology 104th General Meeting, New Orleans, 2004 (LA. Abstract: K-001), and was performed in a final volume of 100 μl in 96-well microtiter plates (IEA/RIA black, flat bottom, half area plates, Costar).
Purified E. coli FabD was diluted in the enzyme dilution buffer (100 mM phosphate buffer pH 7, DTT 1.5 mM, BSA 1 mg/ml [30 ml of Assay buffer+30 mg of BSA]) at ten times the final concentration (0.75 ng/ml). Malonyl-CoA (10 mM, Sigma) was diluted to ten times the final concentration (25 uM) with distilled H2O. Holo-ACP was prepared to 874 μM. […] The reaction mixture was analyzed by anion exchange, high performance liquid chromatography, using a PL-SAX8u 4.6 mm×150 mm column (Polymer Laboratories) and UV-detection (CoA and malonyl-CoA are detected at 254 nm). The percent inhibition of FabD was calculated by integrating the area of the CoA peak in the chromatogram. […]

inhibition of caspase (caspase) | Structure (SMILES) | inhibition of p53 (p53) | radioprotective effect on cells [1] | Do (Gy) [1] | ability to inhibit FabD (E. coli FabD)
inhibit caspase | COC(=O)CNC(=O)C(NC1CCSC1=O)C1CC1 (racemic) [BEB 69] | p53 inhibitors | – | – | –
inhibit caspase | Cc1cn(CC(NC2CCSC2=O)C(=O)NC(C)(C)C)c(=O)[nH]c1=O (racemic) [SK7] | – | potent radioprotective effect | 1.1 ± 0.1 Gy | –
– | O=C(NCc1ccccc1)[C@@H]1CSC(=O)[C@H](Cc2ccccc2)N1 (single isomer, unassigned) [BEB 75-1] | – | potent radioprotective effect | 0.9 ± 0.1 Gy | –
– | Clc1ccc(-c2ncn(CC3CC3)c2-c2c[nH]c3ccccc23)cc1 [BEB 55] | inhibitors of p53 | – | 1.1 ± 0.1 Gy | –
– | Clc1cccc(Cc2ncn(CC3CC3)c2-c2c[nH]c3ccccc23)c1 [BEB 59] | inhibitors of p53 | – | 1.1 ± 0.1 Gy | –
– | CC(C)=CCC[C@H](C)CC(NC1CCSC1=O)C(=O)NC(c1ccccc1)c1ccccc1 (stereo partly drawn) [Compound 13a, (S)-4,8-Dimethyl-2-(2-oxo-tetrahydro-thiophen-3-ylamino)-non-7-enoic acid benzhydryl-amide] | – | – | – | potent inhibitors
– | Cc1cc(C)c(NC(=O)C(NC2CCSC2=O)C(C)C)c(C)c1 (stereo not shown) [Compound 15a, 3-Methyl-2-(2-oxo-tetrahydro-thiophen-3-ylamino)-N-(2,4,6-trimethyl-phenyl)-butyramide] | – | – | – | potent inhibitors
